What was measured:
[1] = Photolysis study per ICH Q1B (photostability); conditions: for Major Degradants, % (RT 4.2 min): HPLC RT 4.2 min; for Major Degradants, % (RT 4.5 min): HPLC RT 4.5 min; for Major Degradants, % (RT 4.9 min): HPLC RT 4.9 min; for Major Degradants, % (RT 6.2 min): HPLC RT 6.2 min; for Major Degradants, % (RT 7.9 min): HPLC RT 7.9 min; for Major Degradants, % (RT 10.4 min): HPLC RT 10.4 min; for Major Degradants, % (RT 10.7 min): HPLC RT 10.7 min; for Major Degradants, % (RT 11.0 min): HPLC RT 11.0 min
Procedure: Photolysis studies were performed on amorphous and crystalline BA9 (i.e, Form I).

[2] = Oxidation study, exposure to 30% H2O2; assay type: physicochemical; conditions: 30% H2O2 for 3 hours; for weight loss after oxidative degradation (relative to a control sample): assay measurement
Source text: It is therefore apparent that amorphous BA9 is more susceptible to oxidative degradation.

[3] = Dark Control, storage at standard laboratory temperature without light; conditions: for Major Degradants, % (RT 4.5 min): HPLC RT 4.5 min; for Major Degradants, % (RT 4.9 min): HPLC RT 4.9 min; for Major Degradants, % (RT 6.2 min): HPLC RT 6.2 min; for Major Degradants, % (RT 10.4 min): HPLC RT 10.4 min; for Major Degradants, % (RT 10.7 min): HPLC RT 10.7 min; for Major Degradants, % (RT 11.0 min): HPLC RT 11.0 min; for Purity Assay, %: standard laboratory temperature, no light, duration of the study
[4] = Dynamic vapor sorption (DVS) experiment; assay type: physicochemical
Procedure: Batch profiling and polymorph screening methods. BA9 Lots 2A and 2B were purified using precipitation from n-hexanes as described above. After the purification process, Lot 2A (82.9 g) was dissolved in methanol (190 g) and precipitated by adding the methanol solution to water. The combined methanolic solution was transferred to an addition funnel and then slowly charged within 1 hour and 15 minutes into vigorously stirred water for injection (2.18 kg) in a reactor at a temperature range of 0-5° C. After completion of the addition of the methanolic solution of BA9, the resulting white suspension was stirred for an additional 15 minutes at the same temperature range. The precipitated BA9 was isolated in 84.8% yield (purity was 96.3% as determined by HPLC). The suspension was then filtered, and the isolated white solid was washed on the filter. Lot 2A was characterized by XRPD and DSC and Lot 2B was characterized by XRPD, DSC, optical microscopy, and infrared (IR) spectroscopy.
A DVS experiment was run on Lot 2B. The increase in mass of the sample was ˜0.5% at 90% RH.

[5] = Photolysis - VIS/UV, minimum 1.2 million lux hours and not less than 200 W·hours/m^2 per ICH Q1B

SMILES	Major Degradants, % (RT 4.2 min) ([1]; Photolysis - VIS/UV)	Major Degradants, % (RT 4.5 min) ([1]; Photolysis - VIS/UV)	Major Degradants, % (RT 4.9 min) ([1]; Photolysis - VIS/UV)	Major Degradants, % (RT 6.2 min) ([1]; Photolysis - VIS/UV)	Major Degradants, % (RT 7.9 min) ([1]; Photolysis - VIS/UV)	Major Degradants, % (RT 10.4 min) ([1]; Photolysis - VIS/UV)	Major Degradants, % (RT 10.7 min) ([1]; Photolysis - VIS/UV)	Major Degradants, % (RT 11.0 min) ([1]; Photolysis - VIS/UV)	Purity Assay, % [1, 5]	Purity Assay, % ([1]; T = 0 Control)	weight loss after oxidative degradation (relative to a control sample) [2]	Major Degradants, % (RT 4.5 min) [3]	Major Degradants, % (RT 4.9 min) [3]	Major Degradants, % (RT 6.2 min) [3]	Major Degradants, % (RT 10.4 min) [3]	Major Degradants, % (RT 10.7 min) [3]	Major Degradants, % (RT 11.0 min) [3]	Purity Assay, % [3]	also measured
CCOCCOC1CCC(CC(C)C2CC(=O)C(C)C=C(C)C(O)C(OC)C(=O)C(C)CC(C)C=CC=CC=C(C)C(OC)CC3CCC(C)C(O)(O3)C(=O)C(=O)N3CCCCC3C(=O)O2)CC1OC (centres unmarked) [Amorphous BA9, 40-O-(2-ethoxyethyl) rapamycin]	1.30%	7.40%	1.20%	2.50%	2.20%	1.70%	0.94%	2.60%	16.3%	98.0%	6.5%	0.72%	0.31%	0.20%	0.44%	1.40%	0.39%	88.2%	Purity Assay, % ([1]; Photolysis - VIS/UV, minimum 1.2 million lux hours and not less than 200 W·hours/m^2 per ICH Q1B, listed as amorphous BA9): 16.3%; Purity Assay, % ([3]; listed as amorphous BA9): 88.2%
CCOCCOC1CCC(CC(C)C2CC(=O)C(C)C=C(C)C(O)C(OC)C(=O)C(C)CC(C)C=CC=CC=C(C)C(OC)CC3CCC(C)C(O)(O3)C(=O)C(=O)N3CCCCC3C(=O)O2)CC1OC (centres unmarked) [Crystalline BA9, 40-O-(2-ethoxyethyl) rapamycin]	0.76%	2.00%	2.60%	0.94%	0.07%	0.15%	0.69%	0.51%	70.2%	97.7%	3.4%	0.08%	0.41%	0.09%	0.03%	0.06%	0.67%	98.0%	Purity Assay, % ([1]; Photolysis - VIS/UV, minimum 1.2 million lux hours and not less than 200 W·hours/m^2 per ICH Q1B, listed as crystalline BA9): 70.2%; solid form of post DVS sample by XRPD ([4]; after DVS experiment): confirmed as Form I; increase in mass of the sample ([4]; at 90% RH): ~0.5%; levels of major degradants after oxidative degradation (vs amorphous BA9) ([2]; HPLC): lower levels of major degradants overall; Major Degradants, % (RT 4.2 min) ([3]; HPLC RT 4.2 min): 0.01%; Purity Assay, % ([3]; listed as crystalline BA9): 98.0%

Source: US11780850B2, “Purification of rapamycin derivatives using temperature induced phase separation” (Biosensors International Group, Ltd., priority 2013, dated 2023)
